Assays:
[1] = system: PCP-disrupted PPI response in rats; test: PCP-disrupted PPI response in rats (schizophrenia model), intravenous administration; assay type: in vivo, Male Wistar rats; conditions: PCP 1.5 mg/kg s.c.; for % PPI (Mean ± SEM): 0.5 mg/kg intravenous, 15 min before PPI (immediately before PCP), pre-pulse 60 dB, startle 110 dB; for effect on PCP-disrupted PPI response: intravenous administration 15 min before PPI
Procedure: Male Wistar rats (n=135) (200-300 g) were used. Animals are housed at a standard temperature (22±1° C.) and in a light-controlled environment (lights on from 7 am to 8 pm) with ad libitum access to food and water. Animals are treated with Phencyclidine (PCP) at 1.5 mg/kg, s.c., and tested in Pre-Pulse Inhibition (PPI) 15 min later. Intravenous administration of Compound A ((−)-7-[(1R,2R)-2-(4,4-difluoro-3-oxooctyl)-5-oxocyclopentyl]heptanoic acid), Compound B ((+)-isopropyl (Z)-7-[(1R,2R,3R,5S)-3,5-dihydroxy-2-(3-oxodecyl)cyclopentyl]hept-5-enoate) and corresponding vehicle was done 15 min before PPI, which means each compound or vehicle was administered immediately before PCP injection.
(§1) PPI tests were conducted in standard startle chambers (SR-LAB Startle Response system, San Diego Instruments, USA). Before the PPI testing, the animals were habituated to handling. On the day of PPI testing, the animals were placed in the chamber and allowed to habituate for a period of 300 s. After habituation period, the rats received 12 startle trials, 12 no-stimulus trials, and 12 trials of the pre-pulse/startle trials (3×12 trials). The startle trials consists of single 110 dB white noise burst lasting 20 ms. The PPI trials consist of a pre-pulse (20 ms burst of white noise with intensities of 60 dB) followed 100 ms later by a startle stimulus (110 dB, 20 ms white noise). During the no-stimulus trial, no startle noise is presented. The resulting movement of the rat in the startle chamber is measured during 100 ms after startle stimulus onset. Basal startle amplitude is determined as the mean amplitude of the 12 startle trials. % PPI is calculated according to the formula 100−100%×(PP/P110), in which PP is the mean of the 12 pre-pulse inhibition trials (i.e., for each individual pre-pulse intensity), and P110 is the basal startle amplitude. The animals are treated with PCP s.c. and then tested in PPI 15 min later.

[2] = system: PCP-disrupted PPI response in rats; test: PCP-disrupted PPI response in rats, oral administration; assay type: in vivo, Male Wistar rats; conditions: PCP 1.5 mg/kg s.c.; for % PPI (Mean ± SEM): 0.3 mg/kg oral, 45 min before PPI (30 min before PCP), pre-pulse 63 dB, startle 110 dB; for effect on PCP-disrupted PPI response: oral administration 45 min before PPI
Procedure: Male Wistar rats (n=135) (200-300 g) were used. Animals are housed at a standard temperature (22±1° C.) and in a light-controlled environment (lights on from 7 am to 8 pm) with ad libitum access to food and water. Animals are treated with Phencyclidine (PCP) at 1.5 mg/kg, s.c., and tested in Pre-Pulse Inhibition (PPI) 15 min later. Oral administration of Compound B ((+)-isopropyl (Z)-7-[(1R,2R,3R,5S)-3,5-dihydroxy-2-(3-oxodecyl)cyclopentyl]hept-5-enoate) and Compound C ((E)-7-[(1R,2R)-2-(4,4-difluoro-3-oxooctyl)-5-oxocyclopentyl]hept-2-enoic acid) and corresponding vehicle was done 45 min before PPI, which means each compound or vehicle was administered 30 min before PCP injection.
as §1, with “63” for “60”

Which results are given for CCCCC(F)(F)C(=O)CC[C@H]1CCC(=O)[C@@H]1CCCCCCC(=O)O [Compound A, (−)-7-[(1R,2R)-2-(4,4-difluoro-3-oxooctyl)-5-oxocyclopentyl]heptanoic acid]?
% PPI (Mean ± SEM) [1]: 34.2 ± 3.9%; effect on PCP-disrupted PPI response [1]: improved the PCP-disrupted PPI response

Which results are given for CCCCC(F)(F)C(=O)CC[C@H]1CCC(=O)[C@@H]1CCCC/C=C/C(=O)O [Compound C, (E)-7-[(1R,2R)-2-(4,4-difluoro-3-oxooctyl)-5-oxocyclopentyl]hept-2-enoic acid]?
% PPI (Mean ± SEM) [2]: 24.7 ± 5.0%; effect on PCP-disrupted PPI response [2]: improved the PCP-disrupted PPI response

CCCCCCCC(=O)CC[C@@H]1[C@@H](C/C=C\CCCC(=O)OC(C)C)[C@@H](O)C[C@H]1O [Compound B, (+)-isopropyl (Z)-7-[(1R,2R,3R,5S)-3,5-dihydroxy-2-(3-oxodecyl)cyclopentyl]hept-5-enoate] was tested. Which “% PPI (Mean ± SEM)” value [1] did it give?
Its value is 40.5 ± 4.2%.

And the “effect on PCP-disrupted PPI response” value [1]?
Its value is “improved the PCP-disrupted PPI response”.

And the “% PPI (Mean ± SEM)” value [2]?
Its value is 24.0 ± 5.3%.

And the “effect on PCP-disrupted PPI response” value [2]?
Its value is “improved the PCP-disrupted PPI response”.

Source: US8592483B2, “Method for treating schizophrenia” (Sucampo AG, priority 2011, dated 2013)
